According to patent US20140343000A1 (priority 2011, published 2014):

System: recombinant NL4-3 virus (Renilla luciferase in nef, Gag P373S; NLRluc) in MT-2 cells
Test: whole plant or invertebrate
Type: cell-based, HIV
Settings: Renilla, NL43, luciferase activity in cells infected for 4-5 days with NLRluc recombinants, serial dilutions of inhibitor; class symbols (key in Table 1); read-out: EC50
How it was run: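 Read-out is Renilla luciferase, measured immediately after adding a premixed lysis/Dual Luciferase reagent. The reporter virus, NL4-3 with luciferase replacing part of nef plus Gag P373S, infected MT-2 cells for 4–5 days under serially diluted inhibitor.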

Q: With `C=C(C)[C@@H]1CC[C@]2(NCCN3CCN(C(=O)C4(C)CC4)CC3)CC[C@]3(C)[C@H](CC[C@@H]4[C@@]5(C)CC=C(c6ccc(C(=O)O)cc6)C(C)(C)[C@@H]5CC[C@]43C)[C@@H]12` [Example B63, 4-((1R,3aS,5aR,5bR,7aR,11aS,11bR,13aR,13bR)-5a,5b,8,8,11a-pentamethyl-3a-((2-(4-(1-methylcyclopropanecarbonyl)piperazin-1-yl)ethyl)amino)-1-(prop-1-en-2-yl)-2,3,3a,4,5,5a,5b,6,7,7a,8,11,11a,11b,12,13,13a,13b-octadecahydro-1H-cyclopenta[a]chrysen-9-yl)benzoic acid] as the compound, how does the EC50 read?
A: < 0.1 µM

Q: `C=C(C)[C@@H]1CC[C@]2(NCCN3CCC(C(=O)O)CC3)CC[C@]3(C)[C@H](CC[C@@H]4[C@@]5(C)CC=C(c6ccc(C(=O)O)cc6)C(C)(C)[C@@H]5CC[C@]43C)[C@@H]12` [Example 170, 1-(2-(((1R,3aS,5aR,5bR,7aR,11aS,11bR,13aR,13bR)-9-(4-carboxyphenyl)-5a,5b,8,8,11a-pentamethyl-1-(prop-1-en-2-yl)-2,3,3a,4,5,5a,5b,6,7,7a,8,11,11a,11b,12,13,13a,13b-octadecahydro-1H-cyclopenta[a]chrysen-3a-yl)amino)ethyl)piperidine-4-carboxylic acid] was tested. Which EC50 did it give?
A: < 0.1 µM

Q: With `C=C(C)[C@@H]1CC[C@]2(NCCN3CCC(S(C)(=O)=O)CC3)CC[C@]3(C)[C@H](CC[C@@H]4[C@@]5(C)CC=C(c6ccc(C(=O)O)cc6)C(C)(C)[C@@H]5CC[C@]43C)[C@@H]12` [Example B14, 4-((1R,3aS,5aR,5bR,7aR,11aS,11bR,13aR,13bR)-5a,5b,8,8,11a-pentamethyl-3a-((2-(4-(methylsulfonyl)piperidin-1-yl)ethyl)amino)-1-(prop-1-en-2-yl)-2,3,3a,4,5,5a,5b,6,7,7a,8,11,11a,11b,12,13,13a,13b-octadecahydro-1H-cyclopenta[a]chrysen-9-yl)benzoic acid] as the compound, how does the EC50 read?
A: < 0.1 µM

Q: For `C=C(C)[C@@H]1CC[C@]2(NCCN3CCN(S(=O)(=O)c4ccc(C)cc4)CC3)CC[C@]3(C)[C@H](CC[C@@H]4[C@@]5(C)CC=C(c6ccc(C(=O)O)cc6)C(C)(C)[C@@H]5CC[C@]43C)[C@@H]12` [Example B48, 4-((1R,3aS,5aR,5bR,7aR,11aS,11bR,13aR,13bR)-5a,5b,8,8,11a-pentamethyl-1-(prop-1-en-2-yl)-3a-((2-(4-tosylpiperazin-1-yl)ethyl)amino)-2,3,3a,4,5,5a,5b,6,7,7a,8,11,11a,11b,12,13,13a,13b-octadecahydro-1H-cyclopenta[a]chrysen-9-yl)benzoic acid], which EC50 is on record?
A: < 0.1 µM

Q: With `C=C(C)[C@@H]1CC[C@]2(NC(=O)N3CCN(C(=O)OC(C)(C)C)CC3CO)CC[C@]3(C)[C@H](CC[C@@H]4[C@@]5(C)CC=C(c6ccc(C(=O)O)cc6)C(C)(C)[C@@H]5CC[C@]43C)[C@@H]12` (mixture of isomers) [Example 61, 4-((1R,3aS,5aR,5bR,7aR,11aS,11bR,13aR,13bR)-3a-(4-(tert-butoxycarbonyl)-2-(hydroxymethyl)piperazine-1-carboxamido)-5a,5b,8,8,11a-pentamethyl-1-(prop-1-en-2-yl)-2,3,3a,4,5,5a,5b,6,7,7a,8,11,11a,11b,12,13,13a,13b-octadecahydro-1H-cyclopenta[a]chrysen-9-yl)benzoic acid] as the compound, how does the EC50 read?
A: < 0.1 µM

Q: For `C=C(C)[C@@H]1CC[C@]2(NCCNc3cccnc3)CC[C@]3(C)[C@H](CC[C@@H]4[C@@]5(C)CC=C(c6ccc(C(=O)O)cc6)C(C)(C)[C@@H]5CC[C@]43C)[C@@H]12` [Example 189, 4-((1R,3aS,5aR,5bR,7aR,11aS,11bR,13aR,13bR)-5a,5b,8,8,11a-pentamethyl-1-(prop-1-en-2-yl)-3a-(2-(pyridin-3-ylamino)ethylamino)-2,3,3a,4,5,5a,5b,6,7,7a,8,11,11a,11b,12,13,13a,13b-octadecahydro-1H-cyclopenta[a]chrysen-9-yl)benzoic acid], which EC50 is on record?
A: < 0.1 µM

Q: How did the EC50 turn out when `C=C(C)[C@@H]1CC[C@]2(NCCCN3CCCC3=O)CC[C@]3(C)[C@H](CC[C@@H]4[C@@]5(C)CC=C(c6ccc(C(=O)O)c(F)c6)C(C)(C)[C@@H]5CC[C@]43C)[C@@H]12` [Example A5, 2-fluoro-4-((1R,3aS,5aR,5bR,7aR,11aS,11bR,13aR,13bR)-5a,5b,8,8,11a-pentamethyl-3a-(3-(2-oxopyrrolidin-1-yl)propylamino)-1-(prop-1-en-2-yl)-2,3,3a,4,5,5a,5b,6,7,7a,8,11,11a,11b,12,13,13a,13b-octadecahydro-1H-cyclopenta[a]chrysen-9-yl)benzoic acid] was run?
A: < 0.1 µM

Q: With `C=C(C)[C@@H]1CC[C@]2(NC(=O)N(CCO)CCN(C)C)CC[C@]3(C)[C@H](CC[C@@H]4[C@@]5(C)CC=C(c6ccc(C(=O)O)cc6)C(C)(C)[C@@H]5CC[C@]43C)[C@@H]12` [Example 52, 4-((1R,3aS,5aR,5bR,7aR,11aS,11bR,13aR,13bR)-3a-(3-(2-(dimethylamino)ethyl)-3-(2-hydroxyethyl)ureido)-5a,5b,8,8,11a-pentamethyl-1-(prop-1-en-2-yl)-2,3,3a,4,5,5a,5b,6,7,7a,8,11,11a,11b,12,13,13a,13b-octadecahydro-1H-cyclopenta[a]chrysen-9-yl)benzoic acid] as the compound, how does the EC50 read?
A: < 0.1 µM

Q: `CC(C)[C@@H]1CC[C@]2(NCCN3CCS(=O)(=O)CC3)CC[C@]3(C)[C@H](CC[C@@H]4[C@@]5(C)CC=C(c6ccc(C(=O)O)cc6)C(C)(C)[C@@H]5CC[C@]43C)[C@@H]12` [Example 163, 4-((1S,3aS,5aR,5bR,7aR,11aS,11bR,13aR,13bR)-3a-((2-(1,1-dioxido-4-thiomorpholinyl)ethyl)amino)-1-isopropyl-5a,5b,8,8,11a-pentamethyl-2,3,3a,4,5,5a,5b,6,7,7a,8,11,11a,11b,12,13,13a,13b-octadecahydro-1H-cyclopenta[a]chrysen-9-yl)benzoic acid] was tested. Which EC50 did it give?
A: < 0.1 µM

Q: `C=C(C)[C@@H]1CC[C@]2(NCCN3CCN(C(=O)C(=O)N(C)C)CC3)CC[C@]3(C)[C@H](CC[C@@H]4[C@@]5(C)CC=C(c6ccc(C(=O)O)cc6)C(C)(C)[C@@H]5CC[C@]43C)[C@@H]12` [Example B25, 4-((1R,3aS,5aR,5bR,7aR,11aS,11bR,13aR,13bR)-3a-((2-(4-(2-(dimethylamino)-2-oxoacetyl)piperazin-1-yl)ethyl)amino)-5a,5b,8,8,11a-pentamethyl-1-(prop-1-en-2-yl)-2,3,3a,4,5,5a,5b,6,7,7a,8,11,11a,11b,12,13,13a,13b-octadecahydro-1H-cyclopenta[a]chrysen-9-yl)benzoic acid] was tested. Which EC50 did it give?
A: < 0.1 µM

Q: With `C=C(C)[C@@H]1CC[C@]2(NC(=O)CN3CCSCC3)CC[C@]3(C)[C@H](CC[C@@H]4[C@@]5(C)CC=C(c6ccc(C(=O)O)cc6)C(C)(C)[C@@H]5CC[C@]43C)[C@@H]12` [Example 98, 4-((1R,3aS,5aR,5bR,7aR,11aS,11bR,13aR,13bR)-5a,5b,8,8,11a-pentamethyl-1-(prop-1-en-2-yl)-3a-(2-thiomorpholinoacetamido)-2,3,3a,4,5,5a,5b,6,7,7a,8,11,11a,11b,12,13,13a,13b-octadecahydro-1H-cyclopenta[a]chrysen-9-yl)benzoic acid] as the compound, how does the EC50 read?
A: < 0.1 µM

Same assay, conditions: luciferase activity in cells infected for 4-5 days with NLRluc recombinants, serial dilutions of inhibitor; class symbols (key in Table 1); read-out: EC50

Q: Which EC50 does the source give for `C=C(C)[C@@H]1CC[C@]2(NC(=O)CC(c3cccs3)N3CCS(=O)(=O)CC3)CC[C@]3(C)[C@H](CC[C@@H]4[C@@]5(C)CC=C(c6ccc(C(=O)O)cc6)C(C)(C)[C@@H]5CC[C@]43C)[C@@H]12` (stereo partly drawn) [Example 101] here?
A: < 0.1 µM
